Data from paper PMC11839852, “Preclinical comparison of (radio)lanthanides using mass spectrometry and nuclear imaging techniques: biodistribution of lanthanide-based tumor-targeting agents and lanthanides in ionic form” (European Journal of Nuclear Medicine and Molecular Imaging, 2024).
Read-outs that look alike come from different tables or passages of the source. Where a SMILES comes first, the peptide text is derived from it. Bridges are numbered along the chain shown (N, C = ends). [ ]: non-standard residue; d: D form. The star is where a group is joined. DOTA = O=C(O)CN1CCN(CC(=O)O)CCN(CC(=O)*)CCN(CC(=O)O)CC1; dPhe(4-NHCONH2) = NC(=O)Nc1ccc(C[C@@H](N)C(=O)O)cc1; Phe(4-Cl) = N[C@@H](Cc1ccc(Cl)cc1)C(=O)O

Columns and labels:
[1] = system: AR42J, PC-3 PIP and KB tumor cells; experiment: In vitro cell uptake of Ln-DTPA complexes; format: cell-based; conditions: all tumor cell lines, 1 h and 4 h incubation
Experimental: A mixture of equal molar amounts of the lanthanide chloride salts (100 nM stock solutions of ^natLuCl3, ^natTbCl3, ^natGdCl3, and ^natEuCl3, diluted in saline with an adjusted pH value to 3.5‒4.0) was prepared to obtain a final concentration of 10 pmol/mL (2.5 pmol/mL per lanthanide salt) and tested with AR42J, PC-3 PIP and KB tumor cells according to the same protocol as described for the Ln-labeled biomolecules (Supplementary Material). Analogous in vitro cell uptake studies were also performed with lanthanide metal complexes of diethylenetriaminepentaacetic acid (DTPA, Sigma Aldrich Chemie, Steinheim, Germany) to obtain a final concentration of 10 pmol/mL (2.5 pmol/mL per lanthanide complex) (Supplementary Material).
Methods: The same experimental setting as described for Ln-labeled biomolecules was applied to perform uptake and internalization studies with the lanthanide DTPA complexes (Ln-DTPA; Ln = ^natLu, ^natTb, ^natGd and ^natEu). The lanthanides were dissolved in 0.05 M hydrochloric acid and further diluted in a 1:5 (v/v) mixture of sodium acetate (0.5 M) and hydrochloric acid (0.05 M), pH ~4.5. A 10-fold molar excess of DTPA (5 mM, aq.) was added to each lanthanide dilution and the reaction mixtures were incubated for 10 min at 95 °C. The complexed lanthanides were further diluted in saline with an adjusted pH value to 3.5-4.0 for in vitro experiments. The applied solution was a mixture of the four Ln-DTPA complexes at a final concentration of 0.4 µM. Of these mixtures, 25 μL were added to the well with the corresponding tumor cells. The tumor cells were incubated for 1 h and 4 h, respectively, at 37 °C and 5% CO2. After incubation, the tumor cells were treated as described for the Ln-labeled biomolecules and processed for the measurement with ICP-MS.

[2] = system: non-tumor-bearing immunocompetent FVB mice; experiment: Biodistribution of Ln-DTPA complexes (multiplexed ICP-MS); conditions: 1 h p.i.
[3] = Biodistribution of Ln-DOTATATE and Ln-DOTA-LM3 (multiplexed ICP-MS); conditions: female, CD1 nude, mouse, intravenous, 0.5 nmol, AR42J tumor-bearing mice; for tissue uptake at 1 h: 1 h p.i.; for tissue uptake at 24 h: 24 h p.i.
[4] = system: non-tumor-bearing immunocompetent FVB mice; conditions: mouse, in vivo, 1 h
[5] = parameters: method as in doi:10.1007/BF02040048, PMID 16411740, PMID 16644751; conditions: coordination with DOTA chelator; cited from earlier work
[6] = AR42J tumor, Tissue uptake: AR42J tumor
[7] = intestines, Tissue uptake: Intestines
[8] = kidneys, Tissue uptake: Kidneys
[9] = pancreas, Tissue uptake: Pancreas
[10] = salivary glands, Tissue uptake: Salivary glands

O=C([O-])CN(CCN(CC(=O)[O-])CC(=O)[O-])CCN(CC(=O)[O-])CC(=O)[O-].[Eu+3] [[^153Eu]Eu-DTPA]
Lanthanide detected in cell samples (background levels) [1]: < 20 ppt | Tissue uptake: Blood [2]: <0.5 % ID/g | Tissue uptake: Bone [2]: <0.5 % ID/g | Tissue uptake: Brain [2]: <0.5 % ID/g | Tissue uptake: Heart [2]: <0.5 % ID/g | Tissue uptake: Intestines [2]: <0.5 % ID/g | Tissue uptake: Kidneys [2]: 2.1 ± 1.0 % ID/g | Tissue uptake: Liver [2]: <0.5 % ID/g | Tissue uptake: Lung [2]: <0.5 % ID/g | Tissue uptake: Muscle [2]: <0.5 % ID/g | Tissue uptake: Pancreas [2]: <0.5 % ID/g | Tissue uptake: Salivary glands [2]: <0.5 % ID/g | Tissue uptake: Spleen [2]: <0.5 % ID/g | Tissue uptake: Stomach [2]: 0.51 ± 0.07 % ID/g

C[C@@H](O)[C@@H]1NC(=O)[C@H](CCCCN)NC(=O)[C@@H](Cc2ccc(NC(N)=O)cc2)NC(=O)[C@H](Cc2ccc(O)cc2)NC(=O)[C@H](NC(=O)[C@H](Cc2ccc(Cl)cc2)NC(=O)CN2CCN(CC(=O)O)CCN(CC(=O)O)CCN(CC(=O)O)CC2)CSSC[C@@H](C(=O)N[C@H](Cc2ccc(O)cc2)C(N)=O)NC1=O [[^175Lu]Lu-DOTA-LM3] ({DOTA}-[Phe(4-Cl)][dC]Y[dPhe(4-NHCONH2)]KTC[dY]-NH2; disulfide 2-7 (inferred); C-terminus assumed)
tissue uptake at 1 h [3, 6]: 4.5 ± 0.2 %ID/g | tissue uptake at 24 h [3, 6]: 2.7 ± 0.3 %ID/g | tissue uptake at 1 h ([3]; blood, Tissue uptake: Blood): 0.51 ± 0.1 %ID/g | tissue uptake at 24 h ([3]; blood, Tissue uptake: Blood): < 0.5 %ID/g | tissue uptake at 1 h ([3]; bone, Tissue uptake: Bone): < 0.5 %ID/g | tissue uptake at 24 h ([3]; bone, Tissue uptake: Bone): < 0.5 %ID/g | tissue uptake at 1 h ([3]; brain, Tissue uptake: Brain): < 0.5 %ID/g | tissue uptake at 24 h ([3]; brain, Tissue uptake: Brain): < 0.5 %ID/g | tissue uptake at 1 h ([3]; heart, Tissue uptake: Heart): < 0.5 %ID/g | tissue uptake at 24 h ([3]; heart, Tissue uptake: Heart): < 0.5 %ID/g | tissue uptake at 1 h [3, 7]: 0.6 ± 0.24 %ID/g | tissue uptake at 24 h [3, 7]: < 0.5 %ID/g | tissue uptake at 1 h [3, 8]: 11 ± 1 %ID/g | tissue uptake at 24 h [3, 8]: 4.8 ± 0.5 %ID/g | tissue uptake at 24 h ([3]; liver, Tissue uptake: Liver): < 0.5 %ID/g | tissue uptake at 24 h ([3]; lung, Tissue uptake: Lung): < 0.5 %ID/g | tissue uptake at 1 h ([3]; muscle, Tissue uptake: Muscle): < 0.5 %ID/g | tissue uptake at 24 h ([3]; muscle, Tissue uptake: Muscle): < 0.5 %ID/g | tissue uptake at 1 h [3, 9]: 1.1 ± 0.1 %ID/g | tissue uptake at 24 h [3, 9]: 0.51 ± 0.17 %ID/g | tissue uptake at 1 h [3, 10]: < 0.5 %ID/g | tissue uptake at 24 h [3, 10]: < 0.5 %ID/g | tissue uptake at 1 h ([3]; spleen, Tissue uptake: Spleen): < 0.5 %ID/g | tissue uptake at 24 h ([3]; spleen, Tissue uptake: Spleen): < 0.5 %ID/g | tissue uptake at 1 h ([3]; stomach, Tissue uptake: Stomach): 1.3 ± 0.2 %ID/g

O=C([O-])CN(CCN(CC(=O)[O-])CC(=O)[O-])CCN(CC(=O)[O-])CC(=O)[O-].[Lu+3] [[^175Lu]Lu-DTPA]
Lanthanide detected in cell samples (background levels) [1]: < 20 ppt | Tissue uptake: Blood [2]: <0.5 % ID/g | Tissue uptake: Bone [2]: <0.5 % ID/g | Tissue uptake: Brain [2]: <0.5 % ID/g | Tissue uptake: Heart [2]: <0.5 % ID/g | Tissue uptake: Intestines [2]: <0.5 % ID/g | Tissue uptake: Kidneys [2]: 2.3 ± 1.0 % ID/g | Tissue uptake: Liver [2]: <0.5 % ID/g | Tissue uptake: Lung [2]: <0.5 % ID/g | Tissue uptake: Muscle [2]: <0.5 % ID/g | Tissue uptake: Pancreas [2]: <0.5 % ID/g | Tissue uptake: Salivary glands [2]: <0.5 % ID/g | Tissue uptake: Spleen [2]: <0.5 % ID/g | Tissue uptake: Stomach [2]: <0.5 % ID/g

O=C([O-])CN(CCN(CC(=O)[O-])CC(=O)[O-])CCN(CC(=O)[O-])CC(=O)[O-].[Gd+3] [[^157Gd]Gd-DTPA]
Lanthanide detected in cell samples (background levels) [1]: < 60 ppt | Tissue uptake: Blood [4]: <0.5 % ID/g | Tissue uptake: Bone [4]: <0.5 % ID/g | Tissue uptake: Brain [4]: <0.5 % ID/g | Tissue uptake: Heart [4]: 0.55 ± 0.06 % ID/g | Tissue uptake: Intestines [4]: <0.5 % ID/g | Tissue uptake: Kidneys [4]: 2.1 ± 0.9 % ID/g | Tissue uptake: Liver [4]: <0.5 % ID/g | Tissue uptake: Lung [4]: 0.56 ± 0.12 % ID/g | Tissue uptake: Muscle [4]: 0.51 ± 0.07 % ID/g | Tissue uptake: Pancreas [4]: <0.5 % ID/g | Tissue uptake: Salivary glands [4]: <0.5 % ID/g | Tissue uptake: Spleen [4]: 0.52 ± 0.03 % ID/g | Tissue uptake: Stomach [4]: 0.77 ± 0.17 % ID/g

O=C([O-])CN1CCN(CC(=O)[O-])CCN(CC(=O)[O-])CCN(CC(=O)[O-])CC1.[Tb+3] [Tb-DOTA]
logK [5]: 24.2

O=C([O-])CN1CCN(CC(=O)[O-])CCN(CC(=O)[O-])CCN(CC(=O)[O-])CC1.[Eu+3] [Eu-DOTA]
logK [5]: 23.4

O=C([O-])CN1CCN(CC(=O)[O-])CCN(CC(=O)O)CCN(CC(=O)[O-])CC1.[Gd+3] [Gd-DOTA]
logK [5]: 24.6

O=C([O-])CN(CCN(CC(=O)[O-])CC(=O)[O-])CCN(CC(=O)[O-])CC(=O)[O-].[Tb+3] [[^159Tb]Tb-DTPA]
Lanthanide detected in cell samples (background levels) [1]: < 20 ppt | Tissue uptake: Blood [2]: <0.5 % ID/g | Tissue uptake: Bone [2]: <0.5 % ID/g | Tissue uptake: Brain [2]: <0.5 % ID/g | Tissue uptake: Heart [2]: <0.5 % ID/g | Tissue uptake: Intestines [2]: <0.5 % ID/g | Tissue uptake: Kidneys [2]: 2.1 ± 1.0 % ID/g | Tissue uptake: Liver [2]: <0.5 % ID/g | Tissue uptake: Lung [2]: <0.5 % ID/g | Tissue uptake: Muscle [2]: <0.5 % ID/g | Tissue uptake: Pancreas [2]: <0.5 % ID/g | Tissue uptake: Salivary glands [2]: <0.5 % ID/g | Tissue uptake: Spleen [2]: <0.5 % ID/g | Tissue uptake: Stomach [2]: <0.5 % ID/g

O=C([O-])CN1CCN(CC(=O)[O-])CCN(CC(=O)[O-])CCN(CC(=O)[O-])CC1.[Lu+3] [Lu-DOTA]
logK [5]: 25.4
